Test results published in US20230087342A1, “AZEPANE DERIVATIVE” (Nippon Chemiphar Co., Ltd., priority 2019, published 2023).
pEC50: −log10 of the molar value. Read-outs that look alike come from different tables or passages of the source.

How the values were obtained:
Metabolic stability test = assay type: in vitro ADME; conditions: human liver microsomes, 0 to 30 minutes; a hydrochloride was used
Method: To determine the unchanged product-residual ratio of the test compound in the reaction sample, human liver microsomes and the test compound were reacted for a predetermined time (0 to 30 minutes). The unchanged product-residual ratio at a reaction time of 0 hours was considered 100%, the residual ratio after incubation was log-linear plotted with respect to the time, a regression line (y=100 e^−kt, k=slope of the line: elimination rate constant) was determined, and the metabolic clearance CLint (mL/min/kg) was calculated using the following formula.
CLint*=k (−min)×45 (mg MS protein/g liver)×21 (g liver/kg)/MS protein (mg MS protein/mL)
*: Yamazaki S.; Skaptason J.; Romero D, Vekich S.; Jones HM.; Tan W.; Wilner KD.; Koudriakova T. Drug Metab. Dispos. 2011 March; 39 (3): 383-393.

ICR male mice = assay: Mouse acetic acid writhing test; assay type: in vivo; conditions: hydrochloride; for ED50: Mus musculus, read-out: ED50 value (writhing suppressing effect)
Method: Mouse Acetic Acid Writhing Test
The analgesic effect of the test compound was evaluated by an acetic acid writhing test. For the experiment, ICR male mice were used and acclimated to a plastic open field for 30 minutes before starting the test. After acclimation, the mice were administered with the test compound (30 to 3000 μg/kg) or water for injection subcutaneously or orally, and once returned to the open field. Thirty minutes after the administration of the test compound, a 0.6% aqueous acetic acid solution was additionally administered to the same mice by intraperitoneal administration. From 10 minutes after administration of the 0.6% aqueous acetic acid solution, the number of writhing reactions (writhing reactions in which the mouse stretches while pressing the abdominal cavity against the floor) induced in the mice was measured for 10 minutes, and the number of writhing reactions was compared with that of a control group (water for injection-administrated group) to evaluate the analgesic effect of the test compound.

human κ opioid receptors = target: T1, human κ opioid receptors (Homo sapiens, UniProt P41145); assay: Opioid receptor function test (Lance Ultra cAMP kit, agonist activity); assay type: cell-based; conditions: CHO cells expressing human κ opioid receptors, 10 μM forskolin, 30 minutes
T1 construct: host or cells: CHO cells
Procedure, shortened: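 CHO cells expressing human κ opioid receptor incubated 30 min with test compound (10^−14 to 10^−7 M) and 10 μM forskolin in HSS/5 mM HEPES pH 7.4 with 0.5 mM IBMX and 0.1% SA. cAMP measured by TR-FRET (Lance Ultra) 1 h after detection reagent addition.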

T1 sequence (P41145 whole entry): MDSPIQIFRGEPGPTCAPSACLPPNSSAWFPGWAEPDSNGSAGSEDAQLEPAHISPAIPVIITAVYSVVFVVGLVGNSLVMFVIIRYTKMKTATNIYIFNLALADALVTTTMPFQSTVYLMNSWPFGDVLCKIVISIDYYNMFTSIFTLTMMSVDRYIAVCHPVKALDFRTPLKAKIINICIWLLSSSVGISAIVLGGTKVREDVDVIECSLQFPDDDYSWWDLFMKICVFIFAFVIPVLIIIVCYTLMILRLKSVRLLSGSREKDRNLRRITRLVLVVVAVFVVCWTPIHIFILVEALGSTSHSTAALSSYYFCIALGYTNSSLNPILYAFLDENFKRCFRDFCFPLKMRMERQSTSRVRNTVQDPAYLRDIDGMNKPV

SMILES	CLint scaled (Metabolic stability test) [mL/min/kg]	pEC50 (human κ opioid receptors)	also measured
O=C(Cc1ccccn1)N1CC[C@]23CCN(CC4CC4)[C@H](Cc4ccc(O)cc42)[C@]3(O)CC1 [Example 22, 1-((5aS,6R,11bR)-14-(cyclopropylmethyl)-5a,10-dihydroxy-1,2,5,5a,6,7-hexahydro-6,11b-(epiminoethano)naphtho[1,2-d]azepin-3(4H)-yl)-2-(pyridin-2-yl)ethan-1-one]	7.2	9.89	ED50 (ICR male mice; Oral): 0.0152 mg/kg; Writhing suppression rate (ICR male mice; Oral, dose 30 (μg/kg)): + (40 ≤ % <60: +); Writhing suppression rate (ICR male mice; Oral, dose 300 (μg/kg)): ++ (60 ≤ % <80: ++)
Oc1ccc2c(c1)[C@@]13CCN(CCc4cscn4)CC[C@@]1(O)[C@@H](C2)N(CC1CC1)CC3 [Example 34, (5aS,6R,11bS)-14-(cyclopropylmethyl)-3-(2-(thiazol-4-yl)ethyl)-2,3,4,5,6,7-hexahydro-6,11b-(epiminoethano)naphtho[1,2-d]azepine-5a,10(1H)-diol]	–	10.40	Writhing suppression rate (ICR male mice; Subcutaneous, dose 30 (μg/kg)): ++ (60 ≤ % <80: ++)
Oc1ccc2c(c1)[C@@]13CCN(CCn4cccn4)CC[C@@]1(O)[C@@H](C2)N(CC1CC1)CC3 [Example 45, (5aS,6R,11bS)-3-(2-(1H-pyrazol-1-yl)ethyl)-14-(cyclopropylmethyl)-2,3,4,5,6,7-hexahydro-6,11b-(epiminoethano)naphtho[1,2-d]azepine-5a,10(1H)-diol]	4.5	9.77	Writhing suppression rate (ICR male mice; Subcutaneous, dose 30 (μg/kg)): ++ (60 ≤ % <80: ++)
Cc1cnn(CCN2CC[C@]34CCN(CC5CC5)[C@H](Cc5ccc(O)cc53)[C@]4(O)CC2)c1 [Example 50, (5aS,6R,11bS)-14-(cyclopropylmethyl)-3-(2-(4-methyl-1H-pyrazol-1-yl)ethyl)-2,3,4,5,6,7-hexahydro-6,11b-(epiminoethano)naphtho[1,2-d]azepine-5a,10(1H)-diol]	8.7	10.57	ED50 (ICR male mice; Oral): 0.21 mg/kg; Writhing suppression rate (ICR male mice; Oral, dose 300 (μg/kg)): + (40 ≤ % <60: +); Writhing suppression rate (ICR male mice; Oral, dose 1000 (μg/kg)): +++ (80 ≤ %: +++)
Oc1ccc2c(c1)[C@@]13CCN(CCc4ccccn4)CC[C@@]1(O)[C@@H](C2)N(CC1CC1)CC3 [Example 77, (5aS,6R,11bS)-14-(cyclopropylmethyl)-3-(2-(pyridin-2-yl)ethyl)-2,3,4,5,6,7-hexahydro-6,11b-(epiminoethano)naphtho[1,2-d]azepine-5a,10(1H)-diol]	6.7	10.59	ED50 (ICR male mice; sc, Subcutaneous): 0.0125 mg/kg; Writhing suppression rate (ICR male mice; Subcutaneous, dose 30 (μg/kg)): + (40 ≤ % <60: +); Writhing suppression rate (ICR male mice; Subcutaneous, dose 300 (μg/kg)): +++ (80 ≤ %: +++)
Cc1cnn(CCN2CC[C@]34CCN(CC5CC5)[C@H](Cc5cc(C)c(O)cc53)[C@]4(O)CC2)c1 [Example 262, (5aS,6R,11bS)-14-(cyclopropylmethyl)-9-methyl-3-(2-(4-methyl-1H-pyrazol-1-yl)ethyl)-2,3,4,5,6,7-hexahydro-6,11b-(epiminoethano)naphtho[1,2-d]azepine-5a,10(1H)-diol]	5.8	10.07	–
Cc1cnn(CCN2CC[C@]34CCN(CC5CC5)[C@H](Cc5cc(Br)c(O)cc53)[C@]4(O)CC2)c1 [Example 263, (5aS,6R,11bS)-9-bromo-14-(cyclopropylmethyl)-3-(2-(4-methyl-1H-pyrazol-1-yl)ethyl)-2,3,4,5,6,7-hexahydro-6,11b-(epiminoethano)naphtho[1,2-d]azepine-5a,10(1H)-diol]	18	9.05	–
NC(=O)c1ccc2c(c1)[C@@]13CCN(C(=O)Cn4cc(C(F)(F)F)cn4)CC[C@@]1(O)[C@@H](C2)N(CC1CC1)CC3 [Example 266, (5aS,6R,11bR)-14-(cyclopropylmethyl)-5a-hydroxy-3-(2-(4-(trifluoromethyl)-1H-pyrazol-1-yl)acetyl)-1,2,3,4,5,5a,6,7-octahydro-6,11b-(epiminoethano)naphtho[1,2-d]azepine-10-carboxamide]	4.4	10.13	–
CC1C[C@@]2(O)[C@H]3Cc4ccc(O)cc4[C@]2(CCN1C(=O)Cc1ccccn1)CCN3CC1CC1 (stereo partly drawn) [Example 281, 1-((5aS,6R,11bR)-14-(cyclopropylmethyl)-5a,10-dihydroxy-4-methyl-1,2,5,5a,6,7-hexahydro-6,11b-(epiminoethano)naphtho[1,2-d]azepin-3(4H)-yl)-2-(pyridin-2-yl)ethan-1-one]	13.7	9.85	–
Cc1cc2c(cc1O)[C@@]13CCN(C(=O)Cc4ccccn4)CC[C@@]1(O)[C@@H](C2)N(CC1CC1)CC3 [Example 291, 1-((5aS,6R,11bR)-14-(cyclopropylmethyl)-5a,10-dihydroxy-9-methyl-1,2,5,5a,6,7-hexahydro-6,11b-(epiminoethano)naphtho[1,2-d]azepin-3(4H)-yl)-2-(pyridin-2-yl)ethan-1-one]	8	9.26	–
O=C(Cc1ccccn1)N1CC[C@]23CCN(CC4CC4)[C@H](Cc4cc(Cl)c(O)cc42)[C@]3(O)CC1 [Example 308, 1-((5aS,6R,11bR)-9-chloro-14-(cyclopropylmethyl)-5a,10-dihydroxy-1,2,5,5a,6,7-hexahydro-6,11b-(epiminoethano)naphtho[1,2-d]azepin-3(4H)-yl)-2-(pyridin-2-yl)ethan-1-one]	9	9.22	ED50 (ICR male mice; Oral): 1.42 mg/kg; Writhing suppression rate (ICR male mice; Oral, dose 1000 (μg/kg)): + (40 ≤ % <60: +); Writhing suppression rate (ICR male mice; Oral, dose 3000 (μg/kg)): ++ (60 ≤ % <80: ++)
Cc1cnn(CCN2CC[C@]34CCN(CC5CC5)[C@H](Cc5cc(Cl)c(O)cc53)[C@]4(O)CC2)c1 [Example 326, (5aS,6R,11bS)-9-chloro-14-(cyclopropylmethyl)-3-(2-(4-methyl-1H-pyrazol-1-yl)ethyl)-2,3,4,5,6,7-hexahydro-6,11b-(epiminoethano)naphtho[1,2-d]azepine-5a,10(1H)-diol]	10.9	9.74	–
COc1c(O)ccc2c1[C@@]13CCN(CCn4cc(C)cn4)CC[C@@]1(O)[C@@H](C2)N(CC1CC1)CC3 [Example 332, (5aS,6R,11bS)-14-(cyclopropylmethyl)-11-methoxy-3-(2-(4-methyl-1H-pyrazol-1-yl)ethyl)-2,3,4,5,6,7-hexahydro-6,11b-(epiminoethano)naphtho[1,2-d]azepine-5a,10(1H)-diol]	9.2	9.19	–
